The record followed here is patent US8067419B2, “Piperazines as antimalarial agents” (Actelion Pharmaceuticals Ltd., priority 2005, dated 2011).

Molecules are shown by their SMILES.

This experiment has as its system P. falciparum K1. The experiment in a line: Plasmodium falciparum in vitro assay ([3H] hypoxanthine incorporation). The experiment is classed as cell-based. To be noted: 72 h, erythrocytic stages of P. falciparum K1 (strain resistant to chloroquine and pyrimethamine), human red cells, 48 h + 24 h with [3H] hypoxanthine. The protocol: In vitro activity against erythrocytic stages of P. falciparum is determined using a [^3H] hypoxanthine incorporation assay. One strain resistant to chloroquine and pyrimethamine (P. falciparum K1) is used in the assays, and all test compounds are compared for activity with the standard drugs chloroquine (sigma C6628) and artemisinin (sigma-36, 159-3). Compounds are diluted in DMSO to 1 mM and added to parasite cultures incubated in RPMI 1640 medium without hypoxanthine, supplemented with HEPES (5.94 g/L), NaHCO3 (2.1 g/L), neomycin (100 U/mL), Albumax (5 g/L) and washed human red cells at 2.5% haematocrit (0.3% parasitaemia). Seven serial doubling dilutions of each drug are prepared in 96-well microtitre plates and incubated in a humidifying atmosphere at 37° C.; 4% CO2, 3% O2, 93% N2.
After 48 hours, 50 μl of [^3H] hypoxanthine (0.5 μCi) is added to each well of a plate. The plates are incubated for a further 24 hours under the same conditions. The plates are then harvested with a Betaplate cell harvester (Wallac) and washed with distilled water. The dried filters are inserted into a plastic foil with 10 mL of scintillation fluid, and counted in a Betaplate liquid scintillation counter. IC50 values are calculated from sigmoidal inhibition curves using Microsoft Excel.
`CCCCCc1ccc(CN(C(=O)/C=C/c2ccc(C(F)(F)F)cc2)[C@@H](Cc2ccccc2)C(=O)N2CCN(Cc3ccc(C(F)(F)F)nc3)CC2)cc1` [Example 15]: the IC50 – broadly, the concentration that inhibits the measured activity by half – stood at 11 nM.
Next, `CCCCc1ccc(CN(C(=O)/C=C/c2ccc(C(F)(F)F)cc2)[C@@H](Cc2ccccc2)C(=O)N2CCN(Cc3ccccc3)CC2)cc1` [Example 33]: 6.9 nM; `O=C([C@H](Cc1ccccc1)N(Cc1ccc(-c2ccncc2)nc1)C(=O)/C=C/c1ccc(C(F)(F)F)cc1)N1CCN(Cc2ccccc2)CC1` [Example 125, N—[(S)-1-benzyl-2-(4-benzyl-piperazin-1-yl)-2-oxo-ethyl]-N-[2,4′]bipyridinyl-5-ylmethyl-3-(4-trifluoromethyl-phenyl)-acrylamide]: 4.8 nM.
As for `C[C@@H]1CC[C@H]2[C@@H](C)C(=O)O[C@@H]3O[C@@]4(C)CC[C@@H]1[C@]32OO4` [Artemisinin, artemisinin, reference compound], the concentration for half-maximal inhibition (IC50) amounted to 2 nM.
As for `CCCCOc1ccc(CN(C(=O)/C=C/c2ccc(OC)cc2)[C@@H](Cc2ccccc2)C(=O)N2CCN(Cc3ccccc3)CC2)cc1` [Example 38], the IC50 was determined as 11 nM.
Turning to `CCCCCc1ccc(CN(C(=O)CCc2cc(C(F)(F)F)cc(C(F)(F)F)c2)[C@@H](Cc2ccccc2)C(=O)N2CCN(Cc3ccccc3)CC2)cc1` [Example 6, N—[(S)-1-benzyl-2-(4-benzyl-piperazin-1-yl)-2-oxo-ethyl]-3-(3,5-bis-trifluoromethyl-phenyl)-N-(4-pentyl-benzyl)-propionamide], the IC50 is 588 nM.
`O=C([C@H](Cc1ccccc1)N(Cc1ccc(N2CCCC2=O)nc1)C(=O)/C=C/c1ccc(C(F)(F)F)cc1)N1CCN(Cc2ccccc2)CC1` [Example 129, N—[(S)-1-benzyl-2-(4-benzyl-piperazin-1-yl)-2-oxo-ethyl]-N-[6-(2-oxo-pyrrolidin-1-yl)-pyridin-3-ylmethyl]-3-(4-trifluoromethyl-phenyl)-acrylamide]: the IC50 is 9.5 nM.
Next, `COc1ccc(/C=C/C(=O)N(Cc2ccc(OCCCN(C)C)cc2)[C@@H](Cc2ccccc2)C(=O)N2CCN(Cc3ccccc3)CC2)cc1` [Example 43]: 8.3 nM.
Next, `CCCCCc1ccc(CN(C(=O)/C=C/c2cccc(OC)c2)[C@@H](Cc2ccccc2)C(=O)N2CCN(Cc3ccccc3)CC2)cc1` [Example 5, N—[(S)-1-benzyl-2-(4-benzyl-piperazin-1-yl)-2-oxo-ethyl]-3-(3-methoxy-phenyl)-N-(4-pentyl-benzyl)-acrylamide]: 19 nM; `CCCCCc1ccc(CN(C(=O)/C=C/c2ccc(OC)cc2)[C@@H](Cc2ccccc2)C(=O)N2CCN(Cc3ccccc3)CC2)cc1` [Example 4, N—[(S)-1-benzyl-2-(4-benzyl-piperazin-1-yl)-2-oxo-ethyl]-3-(4-methoxy-phenyl)-N-(4-pentyl-benzyl)-acrylamide]: 7 nM.
Regarding `CCCCCc1ccc(CN(C(=O)/C=C/c2ccccc2C(F)(F)F)[C@@H](Cc2ccccc2)C(=O)N2CCN(Cc3ccccc3)CC2)cc1` [Example 3, N—[(S)-1-benzyl-2-(4-benzyl-piperazin-1-yl)-2-oxo-ethyl]-N-(4-pentyl-benzyl)-3-(2-trifluoromethyl-phenyl)-acrylamide], the IC50 is 375 nM.
For the compound `CCCCCc1ccc(CN(C(=O)/C=C/c2cccc(C(F)(F)F)c2)[C@@H](Cc2ccccc2)C(=O)N2CCN(Cc3ccccc3)CC2)cc1` [Example 2, N—[(S)-1-benzyl-2-(4-benzyl-piperazin-1-yl)-2-oxo-ethyl]-N-(4-pentyl-benzyl)-3-(3-trifluoromethyl-phenyl)-acrylamide], the IC50 was 70 nM.
As to `CCCCCc1ccc(CN(C(=O)/C=C/c2ccc(C(F)(F)F)cc2)[C@@H](Cc2ccccc2)C(=O)N2CCN(Cc3ccccc3)CC2)cc1` [Example 1, N—[(S)-1-benzyl-2-(4-benzyl-piperazin-1-yl)-2-oxo-ethyl]-N-(4-pentyl-benzyl)-3-(4-trifluoromethyl-phenyl)-acrylamide], the IC50 amounted to 3.8 nM.
Consider `CC(C)Cc1ccc(CN(C(=O)/C=C/c2ccc(C(F)(F)F)cc2)[C@@H](Cc2ccccc2)C(=O)N2CCN(Cc3ccccc3)CC2)cc1` [Example 37], for which the IC50 amounted to 18 nM.
For `CCCCOc1ccc(CN(C(=O)/C=C/c2ccc(C(F)(F)F)cc2)[C@@H](Cc2ccccc2)C(=O)N2CCN(Cc3ccccc3)CC2)cc1` [Example 29, N—[(S)-1-benzyl-2-(4-benzyl-piperazin-1-yl)-2-oxo-ethyl]-N-(4-butoxy-benzyl)-3-(4-trifluoromethyl-phenyl)-acrylamide], the IC50 was found to be 7.5 nM.
